The values below come from ChEMBL document CHEMBL3991601, “The target landscape of clinical kinase drugs” (Science, 2017).

pKd: −log10 of the molar value. Structures can show the parent of a compound that is named as a salt. Activity calls are given as the source filed them. A value given as a limit tells only on which side of the number the result lay.

For experiment [1], the target named is T1, Mitogen-activated protein kinase 15 (Homo sapiens, UniProt Q8TD08).
T1 sequence (Q8TD08 whole entry): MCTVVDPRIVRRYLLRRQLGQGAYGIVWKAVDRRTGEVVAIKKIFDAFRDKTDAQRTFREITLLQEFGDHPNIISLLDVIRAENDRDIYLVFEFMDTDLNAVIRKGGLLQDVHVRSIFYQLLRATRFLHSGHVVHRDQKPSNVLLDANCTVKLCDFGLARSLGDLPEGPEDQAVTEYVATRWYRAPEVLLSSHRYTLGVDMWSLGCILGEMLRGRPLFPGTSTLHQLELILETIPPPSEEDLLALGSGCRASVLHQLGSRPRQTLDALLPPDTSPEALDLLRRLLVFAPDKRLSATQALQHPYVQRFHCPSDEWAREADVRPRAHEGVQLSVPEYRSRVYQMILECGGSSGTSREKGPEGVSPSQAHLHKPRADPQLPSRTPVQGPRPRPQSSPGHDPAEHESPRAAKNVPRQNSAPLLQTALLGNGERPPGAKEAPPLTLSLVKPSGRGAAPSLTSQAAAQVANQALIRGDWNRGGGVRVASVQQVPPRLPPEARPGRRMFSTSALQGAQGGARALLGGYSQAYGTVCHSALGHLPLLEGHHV

Experiment [2] concerns the target Ras-related protein Rab-6A (Homo sapiens, UniProt P20340).
Experiment [3] has as its target Dual specificity testis-specific protein kinase 1 (Homo sapiens, UniProt Q15569).
A further experiment concerns the target Wee1-like protein kinase (Homo sapiens, UniProt P30291).
The target of experiment [4] is Cyclin-dependent kinase 6 (Homo sapiens, UniProt Q00534).
Another experiment has as its target T2, Ephrin type-B receptor 6 (Homo sapiens, UniProt O15197).
T2 sequence (O15197 whole entry): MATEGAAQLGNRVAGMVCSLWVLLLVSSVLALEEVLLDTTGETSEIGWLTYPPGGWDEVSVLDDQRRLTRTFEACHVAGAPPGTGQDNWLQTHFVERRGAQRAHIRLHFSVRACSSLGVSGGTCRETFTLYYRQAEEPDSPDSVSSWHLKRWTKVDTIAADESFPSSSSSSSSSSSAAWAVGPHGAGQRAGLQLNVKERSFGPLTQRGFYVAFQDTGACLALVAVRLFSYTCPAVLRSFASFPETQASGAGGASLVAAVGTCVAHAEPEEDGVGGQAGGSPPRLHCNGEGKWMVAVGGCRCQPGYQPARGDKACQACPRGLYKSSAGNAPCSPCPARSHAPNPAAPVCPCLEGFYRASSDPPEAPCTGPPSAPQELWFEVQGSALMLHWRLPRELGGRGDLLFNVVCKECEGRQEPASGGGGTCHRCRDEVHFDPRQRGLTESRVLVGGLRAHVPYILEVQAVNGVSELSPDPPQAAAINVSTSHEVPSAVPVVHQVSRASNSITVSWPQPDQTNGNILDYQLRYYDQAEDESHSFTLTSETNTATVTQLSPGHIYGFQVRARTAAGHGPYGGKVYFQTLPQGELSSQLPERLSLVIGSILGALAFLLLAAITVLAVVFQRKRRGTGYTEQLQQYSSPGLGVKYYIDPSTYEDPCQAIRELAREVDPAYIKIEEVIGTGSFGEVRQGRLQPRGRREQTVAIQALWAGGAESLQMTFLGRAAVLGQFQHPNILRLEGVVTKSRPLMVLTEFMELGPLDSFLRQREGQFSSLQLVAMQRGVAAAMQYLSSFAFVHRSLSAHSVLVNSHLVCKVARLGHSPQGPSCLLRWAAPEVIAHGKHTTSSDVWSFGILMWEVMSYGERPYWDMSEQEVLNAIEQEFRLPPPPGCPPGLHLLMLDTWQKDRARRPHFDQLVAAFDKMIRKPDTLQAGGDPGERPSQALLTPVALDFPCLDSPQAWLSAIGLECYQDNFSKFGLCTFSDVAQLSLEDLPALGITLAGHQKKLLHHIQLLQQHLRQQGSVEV

Experiment [5] deals with T3, Serine/threonine-protein kinase STK11 (Homo sapiens, UniProt Q15831).
T3 sequence (Q15831 whole entry): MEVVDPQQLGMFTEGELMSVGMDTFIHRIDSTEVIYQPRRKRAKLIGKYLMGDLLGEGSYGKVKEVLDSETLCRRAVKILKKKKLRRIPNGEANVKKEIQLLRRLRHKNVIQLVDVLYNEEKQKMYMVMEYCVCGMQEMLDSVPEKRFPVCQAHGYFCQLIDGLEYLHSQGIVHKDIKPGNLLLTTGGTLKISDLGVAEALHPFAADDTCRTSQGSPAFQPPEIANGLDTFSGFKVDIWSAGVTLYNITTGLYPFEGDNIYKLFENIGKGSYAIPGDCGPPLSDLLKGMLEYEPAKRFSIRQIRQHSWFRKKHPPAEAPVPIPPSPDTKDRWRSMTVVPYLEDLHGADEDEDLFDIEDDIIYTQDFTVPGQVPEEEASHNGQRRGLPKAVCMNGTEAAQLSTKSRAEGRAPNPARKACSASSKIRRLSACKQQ

The target of experiment [6] is U5 small nuclear ribonucleoprotein 200 kDa helicase (Homo sapiens, UniProt O75643).
Also: in the data inactive means no Kd found up to 30 µM.

U5 small nuclear ribonucleoprotein 200 kDa helicase, sequence (O75643 whole entry): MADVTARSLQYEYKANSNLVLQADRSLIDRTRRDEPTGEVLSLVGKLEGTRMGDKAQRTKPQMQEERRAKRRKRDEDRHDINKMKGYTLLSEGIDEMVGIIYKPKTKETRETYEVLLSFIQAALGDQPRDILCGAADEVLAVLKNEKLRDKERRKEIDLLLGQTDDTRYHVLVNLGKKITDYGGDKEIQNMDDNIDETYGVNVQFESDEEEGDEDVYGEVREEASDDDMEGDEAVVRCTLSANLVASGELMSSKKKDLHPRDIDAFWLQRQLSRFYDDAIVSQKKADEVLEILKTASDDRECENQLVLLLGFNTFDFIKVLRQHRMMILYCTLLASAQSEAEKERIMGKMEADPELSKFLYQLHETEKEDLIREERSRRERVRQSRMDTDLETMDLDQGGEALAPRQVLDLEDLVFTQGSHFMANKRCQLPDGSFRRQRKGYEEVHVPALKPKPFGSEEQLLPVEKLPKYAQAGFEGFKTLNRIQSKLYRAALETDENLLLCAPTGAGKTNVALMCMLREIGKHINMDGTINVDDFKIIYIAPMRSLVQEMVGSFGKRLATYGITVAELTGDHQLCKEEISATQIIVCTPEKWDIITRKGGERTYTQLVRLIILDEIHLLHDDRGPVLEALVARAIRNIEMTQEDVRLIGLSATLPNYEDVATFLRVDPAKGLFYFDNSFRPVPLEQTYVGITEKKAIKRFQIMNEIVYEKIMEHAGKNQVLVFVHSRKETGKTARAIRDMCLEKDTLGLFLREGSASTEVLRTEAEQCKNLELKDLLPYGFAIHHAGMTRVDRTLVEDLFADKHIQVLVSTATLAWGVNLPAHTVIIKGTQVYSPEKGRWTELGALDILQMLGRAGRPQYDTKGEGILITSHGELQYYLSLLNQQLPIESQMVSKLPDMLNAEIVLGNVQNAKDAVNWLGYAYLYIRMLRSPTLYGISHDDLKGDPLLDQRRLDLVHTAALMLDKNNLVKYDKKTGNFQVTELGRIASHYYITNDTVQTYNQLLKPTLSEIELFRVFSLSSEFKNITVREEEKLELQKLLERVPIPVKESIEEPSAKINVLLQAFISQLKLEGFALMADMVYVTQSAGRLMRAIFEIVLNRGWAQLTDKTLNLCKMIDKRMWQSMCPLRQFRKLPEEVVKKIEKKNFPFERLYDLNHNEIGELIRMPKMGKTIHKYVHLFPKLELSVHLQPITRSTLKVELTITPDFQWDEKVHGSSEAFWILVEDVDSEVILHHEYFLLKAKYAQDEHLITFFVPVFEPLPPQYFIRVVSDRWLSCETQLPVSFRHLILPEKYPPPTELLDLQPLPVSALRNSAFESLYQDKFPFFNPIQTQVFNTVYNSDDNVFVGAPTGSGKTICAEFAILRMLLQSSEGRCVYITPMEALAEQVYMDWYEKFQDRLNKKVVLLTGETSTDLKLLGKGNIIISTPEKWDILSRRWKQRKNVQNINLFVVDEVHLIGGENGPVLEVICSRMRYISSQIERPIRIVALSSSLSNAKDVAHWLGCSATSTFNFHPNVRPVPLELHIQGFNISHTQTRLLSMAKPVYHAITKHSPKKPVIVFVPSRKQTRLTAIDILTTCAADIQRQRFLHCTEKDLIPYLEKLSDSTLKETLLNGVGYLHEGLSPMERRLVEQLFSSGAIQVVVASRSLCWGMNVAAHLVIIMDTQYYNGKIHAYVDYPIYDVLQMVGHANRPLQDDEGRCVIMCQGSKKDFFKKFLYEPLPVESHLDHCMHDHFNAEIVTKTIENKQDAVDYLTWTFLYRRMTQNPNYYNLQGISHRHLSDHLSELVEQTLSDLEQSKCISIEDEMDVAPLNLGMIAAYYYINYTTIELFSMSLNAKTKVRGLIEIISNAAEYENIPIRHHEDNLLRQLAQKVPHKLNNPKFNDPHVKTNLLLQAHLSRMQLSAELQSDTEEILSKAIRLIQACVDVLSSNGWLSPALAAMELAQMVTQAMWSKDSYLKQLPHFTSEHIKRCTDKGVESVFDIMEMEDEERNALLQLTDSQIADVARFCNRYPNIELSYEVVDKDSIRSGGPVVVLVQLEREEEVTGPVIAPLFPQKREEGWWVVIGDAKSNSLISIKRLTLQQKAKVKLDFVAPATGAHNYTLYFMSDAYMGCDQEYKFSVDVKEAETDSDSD
Dual specificity testis-specific protein kinase 1, sequence (Q15569 whole entry): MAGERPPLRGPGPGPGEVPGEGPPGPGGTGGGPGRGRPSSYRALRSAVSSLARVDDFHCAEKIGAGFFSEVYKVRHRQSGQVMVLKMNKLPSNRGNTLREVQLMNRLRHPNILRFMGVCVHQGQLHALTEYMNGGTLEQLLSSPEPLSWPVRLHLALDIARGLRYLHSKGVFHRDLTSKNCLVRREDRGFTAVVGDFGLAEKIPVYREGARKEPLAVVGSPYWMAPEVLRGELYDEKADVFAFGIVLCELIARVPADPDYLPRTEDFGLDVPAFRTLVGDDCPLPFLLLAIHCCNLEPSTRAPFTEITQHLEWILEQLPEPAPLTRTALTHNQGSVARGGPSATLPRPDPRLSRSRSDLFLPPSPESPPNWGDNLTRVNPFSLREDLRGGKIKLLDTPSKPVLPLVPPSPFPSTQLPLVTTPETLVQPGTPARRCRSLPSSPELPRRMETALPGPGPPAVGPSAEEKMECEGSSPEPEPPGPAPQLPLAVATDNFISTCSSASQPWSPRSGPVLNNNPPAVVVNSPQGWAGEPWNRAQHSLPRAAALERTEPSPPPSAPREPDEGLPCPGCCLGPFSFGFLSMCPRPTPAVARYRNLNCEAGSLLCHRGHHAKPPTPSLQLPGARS
Cyclin-dependent kinase 6, sequence (Q00534 whole entry): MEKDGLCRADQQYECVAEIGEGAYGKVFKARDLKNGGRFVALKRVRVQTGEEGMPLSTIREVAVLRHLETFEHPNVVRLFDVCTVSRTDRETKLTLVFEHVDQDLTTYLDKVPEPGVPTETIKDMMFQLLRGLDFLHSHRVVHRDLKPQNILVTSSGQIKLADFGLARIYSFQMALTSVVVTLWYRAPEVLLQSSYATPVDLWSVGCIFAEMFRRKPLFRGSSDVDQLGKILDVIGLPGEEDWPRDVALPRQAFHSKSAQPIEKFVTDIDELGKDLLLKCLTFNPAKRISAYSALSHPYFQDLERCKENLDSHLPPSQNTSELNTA
Ras-related protein Rab-6A, sequence (P20340 whole entry): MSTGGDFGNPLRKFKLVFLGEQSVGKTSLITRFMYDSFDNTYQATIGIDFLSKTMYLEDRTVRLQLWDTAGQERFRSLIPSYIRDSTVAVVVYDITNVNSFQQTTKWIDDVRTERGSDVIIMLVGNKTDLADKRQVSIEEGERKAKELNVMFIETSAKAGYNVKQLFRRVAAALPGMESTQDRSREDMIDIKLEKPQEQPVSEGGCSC
Wee1-like protein kinase, sequence (P30291 whole entry): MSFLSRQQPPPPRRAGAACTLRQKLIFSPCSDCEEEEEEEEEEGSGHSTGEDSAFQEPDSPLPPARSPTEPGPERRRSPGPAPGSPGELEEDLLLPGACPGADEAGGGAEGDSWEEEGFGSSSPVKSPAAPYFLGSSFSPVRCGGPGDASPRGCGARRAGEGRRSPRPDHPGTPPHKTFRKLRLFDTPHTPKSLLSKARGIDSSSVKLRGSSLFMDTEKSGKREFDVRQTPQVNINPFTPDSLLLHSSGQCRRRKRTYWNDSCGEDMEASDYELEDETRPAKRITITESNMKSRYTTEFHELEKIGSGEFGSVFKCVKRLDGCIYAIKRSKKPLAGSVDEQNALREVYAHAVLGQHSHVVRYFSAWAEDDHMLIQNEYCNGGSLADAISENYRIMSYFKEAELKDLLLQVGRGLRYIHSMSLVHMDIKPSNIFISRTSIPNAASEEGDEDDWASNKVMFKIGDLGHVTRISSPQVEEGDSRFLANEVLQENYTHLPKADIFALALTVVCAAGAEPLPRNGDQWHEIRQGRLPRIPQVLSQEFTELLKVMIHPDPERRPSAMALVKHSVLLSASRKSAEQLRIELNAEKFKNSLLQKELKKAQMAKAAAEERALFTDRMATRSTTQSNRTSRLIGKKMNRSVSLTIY

As for `CCS(=O)(=O)N1CCN(c2ccc(Nc3ncc(C(N)=O)c(NC4CC4)n3)cc2)CC1` [Cerdulatinib Hydrochloride], the Kd (in experiment [1]; in experiment [2]; in experiment [3]; on Wee1-like protein kinase; in experiment [4]; on Ephrin type-B receptor 6) was > 30 µM (inactive) throughout. Further, the Kd in experiment [5] and in experiment [6] was > 30 µM (inactive) in each case.
With `CC(C)(C)c1nc(-c2cccc(NS(=O)(=O)c3c(F)cccc3F)c2F)c(-c2ccnc(N)n2)s1` [DABRAFENIB], the Kd is > 30 µM (inactive) in experiment [1]; > 30 µM (inactive) in experiment [2]; > 30 µM (inactive) in experiment [3]; > 30 µM (inactive) on Wee1-like protein kinase; 0.318 µM (active) in experiment [4]; 0.412 µM (active) on Ephrin type-B receptor 6. For the same molecule, the Kd in experiment [5] and in experiment [6] was > 30 µM (inactive) each time.
For the molecule `Cc1nc2cc(-n3ncc(C(=O)c4cc5ccccc5[nH]4)c3N)ccc2[nH]1` [FGFR INHIBITOR DEBIO 1347], the Kd (in experiment [1]; in experiment [2]; in experiment [3]; at Wee1-like protein kinase; in experiment [4]; in experiment [5]) was > 30 µM (inactive) each time. In addition, the Kd in experiment [6] was > 30 µM (inactive). Further, the pKd on Ephrin type-B receptor 6 was 8.15.
In the case of `O=C(Nc1nc2cccc(-c3ccc(CN4CCS(=O)(=O)CC4)cc3)n2n1)C1CC1` [FILGOTINIB], the Kd (in experiment [1]; in experiment [2]; in experiment [3]; on Wee1-like protein kinase; in experiment [4]; on Ephrin type-B receptor 6) was > 30 µM (inactive) each time. Besides, the Kd in experiment [5] and in experiment [6] was > 30 µM (inactive) throughout.
Regarding `Cc1cccc(-c2nn3c(c2-c2ccnc4ccc(C(N)=O)cc24)CCC3)n1` [GALUNISERTIB], the Kd (in experiment [1]; in experiment [2]; in experiment [3]; on Wee1-like protein kinase; in experiment [4]; at Ephrin type-B receptor 6) was > 30 µM (inactive) in each case. In addition, the Kd in experiment [5] and in experiment [6] was > 30 µM (inactive) throughout.
As to `COc1ccc(S(=O)(=O)N(C(C)=O)c2ccccc2/C=C/c2cc[n+]([O-])cc2)cc1` [HMN-214], the Kd (in experiment [1]; in experiment [2]; in experiment [3]; at Wee1-like protein kinase; in experiment [4]; at Ephrin type-B receptor 6) was > 30 µM (inactive) each time. Also, the Kd in experiment [5] and in experiment [6] was > 30 µM (inactive) in each case.
Turning to `O=C(Nc1cc(C(F)(F)F)cc(C(F)(F)F)c1)c1cc(Cl)ccc1O` [IMD-0354], the Kd (in experiment [1]; in experiment [2]; in experiment [3]; on Wee1-like protein kinase; in experiment [4]; at Ephrin type-B receptor 6) was > 30 µM (inactive) throughout. Also, the Kd in experiment [5] and in experiment [6] was > 30 µM (inactive) throughout.
In the case of `CNC(=O)c1cccc2cc(Oc3ccnc4cc(OCC5(N)CC5)c(OC)cc34)ccc12` [LUCITANIB], the Kd (in experiment [1]; in experiment [2]; in experiment [3]; at Wee1-like protein kinase; in experiment [4]; on Ephrin type-B receptor 6) was > 30 µM (inactive) each time. The Kd in experiment [5] and in experiment [6] was > 30 µM (inactive) each time.
Regarding `CNC(=O)c1nn(C)c2c1C(C)(C)Cc1cnc(Nc3ccc(N4CCN(C)CC4)cc3)nc1-2` [MILCICLIB], the Kd is > 30 µM (inactive) in experiment [1]; > 30 µM (inactive) in experiment [2]; > 30 µM (inactive) in experiment [3]; 0.013 µM (active) at Wee1-like protein kinase; 1.72 µM (active) in experiment [4]; > 30 µM (inactive) at Ephrin type-B receptor 6. For the same molecule, the Kd in experiment [5] and in experiment [6] was > 30 µM (inactive) each time.
Regarding `CN(C[C@@H]1COCCO1)S(=O)(=O)Nc1ccc2ccc3ncc(-c4cnn(C)c4)cc3c(=O)c2c1` [MK-2461], the Kd (in experiment [1]; in experiment [2]; in experiment [3]; on Wee1-like protein kinase; in experiment [4]; at Ephrin type-B receptor 6) was > 30 µM (inactive) in each case. Also, the Kd in experiment [5] and in experiment [6] was > 30 µM (inactive) throughout.
As to `Cn1cc(-c2cnc3ccc4ccc(CS(=O)(=O)NCc5ccccn5)cc4c(=O)c3c2)cn1` [MK-8033], the Kd (in experiment [1]; in experiment [2]; in experiment [3]; at Wee1-like protein kinase; in experiment [4]; at Ephrin type-B receptor 6) was > 30 µM (inactive) in each case. Besides, the Kd in experiment [5] and in experiment [6] was > 30 µM (inactive) throughout.
For the molecule `FC(F)(F)c1ccc(/C=C/c2nc(COc3ccc(CCCCn4ccnn4)cc3)co2)cc1` [MUBRITINIB], the Kd (in experiment [1]; in experiment [2]; in experiment [3]; on Wee1-like protein kinase; in experiment [4]; at Ephrin type-B receptor 6) was > 30 µM (inactive) in each case. Besides, the Kd in experiment [5] and in experiment [6] was > 30 µM (inactive) throughout.
As for `COc1ncc(-c2ccc3nccc(-c4ccnnc4)c3c2)cc1NS(=O)(=O)c1ccc(F)cc1F` [OMIPALISIB], the Kd (in experiment [1]; in experiment [2]; in experiment [3]; at Wee1-like protein kinase; in experiment [4]; on Ephrin type-B receptor 6) was > 30 µM (inactive) in each case. Further, the Kd in experiment [5] and in experiment [6] was > 30 µM (inactive) each time.
Consider `NC(=O)c1c(OCc2c(F)cc(Br)cc2F)nsc1NC(=O)NCCCCN1CCCC1` [OSI-632], for which the Kd in experiment [1] is > 30 µM (inactive); in experiment [2], > 30 µM (inactive); in experiment [3] it was 1.42 µM (active); at Wee1-like protein kinase it was > 30 µM (inactive); in experiment [4], > 30 µM (inactive); on Ephrin type-B receptor 6, 0.226 µM (active). For the same molecule, the Kd in experiment [5] and in experiment [6] was > 30 µM (inactive) each time.
